The text below walks through data of patent US20240391882A1 (Mirati Therapeutics, Inc., priority 2023, published 2024).

The term IC50 denotes the concentration needed to halve the response being measured.

SMILES strings stand for the structures. Read-outs that look alike come from different tables or passages of the source. Bounds are passed on as bounds.

What all share (type): cell-based
Assay [1] has as its system pAKT in T47D (PI3Kα H1047R mutant) cells. Nature of the assay: Inhibition of pAKT (alphaLISA Surefire Ultra AKT 1/2/3 pS473) in T47D cells. As to conditions: Homo sapiens, read-out: T47D (H1047R) pAKT 24 hr (IC50). The method in brief:
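Cells in HBSS were dosed from 10.4 μm (1:4 serial dilution, 10 concentrations) and incubated about 24 hours at 37° C, then lysed. pAKT S473 measured by alphaLISA after overnight bead incubation. Signal normalised to alpelisib (3.125 μm) and DMSO controls; IC50 from four-parameter fit.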
(Alpha assays give light when donor and acceptor beads are brought close together.)

Assay [2] deals with T47D (PI3Kα H1047R mutant) cells. Nature of the assay: Cell viability (CellTiter-Glo 2.0) in T47D cells. The following applies: Homo sapiens, approximately 72 hours. Put shortly:
(§1)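 SKBR3 or T47D cells, 1000 per well, were seeded overnight and then exposed ~72 h at 37° C to 10 concentrations of compound, 1:4 dilutions from 10 μm. Viability read by CellTiter-Glo luminescence as percent of vehicle; IC50 from four-parameter variable-slope fit.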
(ATP-based viability assays read luminescence as a measure of living cells.)

Assay [3] concerns SKBR3 (PI3Kα wild type) cells. Nature of the assay: Cell viability (CellTiter-Glo 2.0) in SKBR3 cells. As to conditions: Homo sapiens. The method in brief:
as §1

Setting [4] is: T47D (PI3Kα H1047R mutant) cells, 24 hr compound incubation, alphaLISA pS473.
Where [5] appears, read: SK-BR-3, SKBR3 (PI3Kα wild type) cells, approximately 72 hours, CellTiter-Glo 2.0, read-out: SKBR3 (WT) Viability IC50.
[6] abbreviates: SK-BR-3, 72 h, read-out: SKBR3 (WT) Viability IC50 (nM).

As for `Cc1cc([C@@H](C)Nc2ccc(Cl)nc2C(=O)O)c2nc(N3C[C@H]4CO[C@H](C4)C3)c(C#N)nc2c1` (single isomer, unassigned) [Example 243B], the IC50 in assay [1] (setting [4]) is 0.52 nM; in assay [2] (T47D, 72 h), 50 nM; in assay [3] (setting [5]), above 10000 nM.
Taken in the same sequence, the figures for `Cc1cc([C@@H](C)Nc2ccc(Cl)nc2C(=O)O)c2nc(N3CC4CC[C@@]4(F)C3)c(C#N)nc2c1` (single isomer, unassigned) [Example 244A] were 1.2 nM, 57 nM and above 10000 nM.
Consider `Cc1cc([C@@H](C)Nc2ccc(Cl)nc2C(=O)O)c2nc(N3CC4CCC4(F)C3)c(C#N)nc2c1` (single isomer, unassigned) [Example 244B], for which the IC50 in assay [1] (setting [4]) is 1.3 nM; in assay [2] (T47D, 72 h) it was 89 nM; in assay [3] (setting [5]), above 10000 nM.
Take `Cc1cc([C@@H](C)Nc2ccc(Cl)nc2C(=O)O)c2nc(N3CC[C@@]4(CCCO4)C3)c(C#N)nc2c1` (single isomer, unassigned) [Example 253A]: the concentration for half-maximal inhibition (IC50) in assay [1] (setting [4]) was 5.6 nM; in assay [2] (T47D, 72 h) it was 197 nM; in assay [3] (setting [5]), 6850 nM.
The like results for `Cc1cc([C@@H](C)Nc2ccc(Cl)nc2C(=O)O)c2nc(N3CC[C@]4(CCCO4)C3)c(C#N)nc2c1` (single isomer, unassigned) [Example 253B] were, in that order, 5.8 nM, 113 nM and 5140 nM.
Taken in the same sequence, the figures for `Cc1cc([C@@H](C)Nc2ccc(Cl)nc2C(=O)O)c2nc(N3CC4(CC[C@@H]4F)C3)c(C#N)nc2c1` (single isomer, unassigned) [Example 257A] were 4.8 nM, 139 nM and 3740 nM.
Taken in the same sequence, the figures for `Cc1cc(C(C)Nc2ccccc2C(=O)O)c2nc(N3Cc4ccccc4C3)c(C#N)nc2c1` (stereo not drawn) [Example 2, 2-((1-(2-cyano-3-(isoindolin-2-yl)-7-methylquinoxalin-5-yl)ethyl)amino)benzoic acid] were 18.2 nM, 631 nM and above 10000 nM.
For the compound `Cc1cc([C@@H](C)Nc2ccccc2C(=O)O)c2nc(N3CCC(F)(F)CC3)c(C#N)nc2c1` [Example 3, (R)-2-((1-(2-cyano-3-(4,4-difluoropiperidin-1-yl)-7-methylquinoxalin-5-yl)ethyl)amino)benzoate], the IC50 in assay [1] (setting [4]) is 9.5 nM; in assay [2] (T47D, 72 h), 170 nM; in assay [3] (setting [5]), above 10000 nM.
Taken in the same sequence, the figures for `Cc1cc([C@H](C)Nc2ccccc2C(=O)O)c2nc(N3CCC(F)(F)CC3)c(C#N)nc2c1` [Example 4, (S)-2-((1-(2-cyano-3-(4,4-difluoropiperidin-1-yl)-7-methylquinoxalin-5-yl)ethyl)amino)benzoate] were 844 nM, 9330 nM and above 10000 nM.
As for `Cc1cc([C@@H](C)Nc2ccc(Cl)nc2C(=O)O)c2nc(N3CCC(F)(F)CC3)c(C#N)nc2c1` [Example 5, (R)-6-chloro-3-((1-(2-cyano-3-(4,4-difluoropiperidin-1-yl)-7-methylquinoxalin-5-yl)ethyl)amino)picolinic acid], the IC50 in assay [1] (T47D, 24 h) is 0.8 nM; in assay [2], 37.3 nM; in assay [3] (setting [6]), 3970 nM.
For `Cc1cc([C@@H](C)Nc2ccccc2C(=O)O)c2nc(N3Cc4ccccc4C3)c(C#N)nc2c1` [Example 6, (R)-2-((1-(2-cyano-3-(isoindolin-2-yl)-7-methylquinoxalin-5-yl)ethyl)amino)benzoic acid], the IC50 in assay [1] (T47D, 24 h) was 5 nM; in assay [2] it was 294 nM; in assay [3] (setting [6]), above 10000 nM.
As for `Cc1cc([C@@H](C)Nc2ccc(Cl)nc2C(=O)O)c2nc(N3CC4CC(C3)C4(F)F)c(C#N)nc2c1` [Example 7, 6-chloro-3-(((1R)-1-(2-cyano-3-(6,6-difluoro-3-azabicyclo[3.1.1]heptan-3-yl)-7-methylquinoxalin-5-yl)ethyl)amino)picolinic acid], the IC50 in assay [1] (setting [4]) is 0.8 nM; in assay [2] (T47D, 72 h), 59.8 nM; in assay [3] (setting [5]), above 10000 nM.
Regarding `Cc1cc([C@@H](C)Nc2ccc(Cl)nc2C(=O)O)c2nc(N3CC4C(C3)C4(F)F)c(C#N)nc2c1` (stereo partly drawn) [Example 21, 6-chloro-3-(((1R)-1-(2-cyano-3-(6,6-difluoro-3-azabicyclo[3.1.0]hexan-3-yl)-7-methylquinoxalin-5-yl)ethyl)amino)picolinic acid], the IC50 in assay [1] (setting [4]) is 0.5 nM; in assay [2] (T47D, 72 h), 32.1 nM; in assay [3] (setting [5]) it was above 10000 nM.
On to `Cc1cc([C@@H](C)Nc2ccc(Cl)nc2C(=O)O)c2nc(N3CCC4(CC4)C(F)(F)C3)c(C#N)nc2c1` [Example 22, (R)-6-chloro-3-((1-(2-cyano-3-(4,4-difluoro-6-azaspiro[2.5]octan-6-yl)-7-methylquinoxalin-5-yl)ethyl)amino)picolinic acid], for which the IC50 was 1.9 nM in assay [1] (setting [4]); 79.3 nM in assay [2] (T47D, 72 h); 5320 nM in assay [3] (setting [5]).
Regarding `Cc1cc([C@@H](C)Nc2ccc(Cl)nc2C(=O)O)c2nc(NCC3(F)CC3)c(C#N)nc2c1` [Example 23, (R)-6-chloro-3-((1-(2-cyano-3-(((1-fluorocyclopropyl)methyl)amino)-7-methylquinoxalin-5-yl)ethyl)amino)picolinic acid], the IC50 in assay [1] (setting [4]) was 0.7 nM; in assay [2] (T47D, 72 h), 61.9 nM; in assay [3] (setting [5]), above 10000 nM.
As for `Cc1cc([C@@H](C)Nc2ccc(Cl)nc2C(=O)O)c2nc(N3Cc4ccc(F)cc4C3)c(C#N)nc2c1` [Example 24, (R)-6-chloro-3-((1-(2-cyano-3-(5-fluoroisoindolin-2-yl)-7-methylquinoxalin-5-yl)ethyl)amino)picolinic acid], the IC50 in assay [1] (setting [4]) was 1.3 nM; in assay [2] (T47D, 72 h), 44.2 nM; in assay [3] (setting [5]), above 10000 nM.
For `Cc1cc([C@@H](C)Nc2ccc(Cl)nc2C(=O)O)c2nc(NCC3CC3)c(C#N)nc2c1` [Example 25, (R)-6-chloro-3-((1-(2-cyano-3-((cyclopropylmethyl)amino)-7-methylquinoxalin-5-yl)ethyl)amino)picolinic acid], the IC50 was 1.2 nM in assay [1] (setting [4]); 175 nM in assay [2] (T47D, 72 h); above 10000 nM in assay [3] (setting [5]).
As for `C[C@@H](Nc1ccc(Cl)nc1C(=O)O)c1cc(F)cc2nc(C#N)c(N3CCC(F)(F)CC3)nc12` [Example 26, (R)-6-chloro-3-((1-(2-cyano-3-(4,4-difluoropiperidin-1-yl)-7-fluoroquinoxalin-5-yl)ethyl)amino)picolinic acid], the IC50 is 1.8 nM in assay [1] (setting [4]); 51.5 nM in assay [2] (T47D, 72 h); 9800 nM in assay [3] (setting [5]).
`C[C@H](Nc1ccccc1C(=O)O)c1cc(C#N)cc2nc(C#N)c(N3CCC(F)(F)CC3)nc12` [Example 27, (S)-2-((1-(2,7-dicyano-3-(4,4-difluoropiperidin-1-yl)quinoxalin-5-yl)ethyl)amino)benzoic acid]: the IC50 in assay [1] (setting [4]) was 1140 nM; in assay [2] (T47D, 72 h), above 10000 nM; in assay [3] (setting [5]) it was above 10000 nM.
Consider `C[C@@H](Nc1ccccc1C(=O)O)c1cc(C#N)cc2nc(C#N)c(N3CCC(F)(F)CC3)nc12` [Example 28, (R)-2-((1-(2,7-dicyano-3-(4,4-difluoropiperidin-1-yl)quinoxalin-5-yl)ethyl)amino)benzoic acid], for which the IC50 in assay [1] (setting [4]) was 48.3 nM; in assay [2] (T47D, 72 h) it was 2140 nM; in assay [3] (setting [5]), above 10000 nM.
For `C[C@H](Nc1ccccc1C(=O)O)c1cc(Cl)cc2nc(C#N)c(N3CCC(F)(F)CC3)nc12` [Example 29, (S)-2-((1-(7-chloro-2-cyano-3-(4,4-difluoropiperidin-1-yl)quinoxalin-5-yl)ethyl)amino)benzoic acid], the IC50 in assay [1] (setting [4]) is 117 nM; in assay [2] (T47D, 72 h), 3480 nM; in assay [3] (setting [5]), above 10000 nM.
Taken in the same sequence, the figures for `C[C@@H](Nc1ccccc1C(=O)O)c1cc(Cl)cc2nc(C#N)c(N3CCC(F)(F)CC3)nc12` [Example 30, (R)-2-((1-(7-chloro-2-cyano-3-(4,4-difluoropiperidin-1-yl)quinoxalin-5-yl)ethyl)amino)benzoic acid] were 4.7 nM, 183 nM and above 10000 nM.
On to `C[C@H](Nc1ccccc1C(=O)O)c1cc(F)cc2nc(C#N)c(N3CCC(F)(F)CC3)nc12` [Example 31, (S)-2-((1-(2-cyano-3-(4,4-difluoropiperidin-1-yl)-7-fluoroquinoxalin-5-yl)ethyl)amino)benzoic acid], for which the IC50 is 561 nM in assay [1] (setting [4]); above 10000 nM in assay [2] (T47D, 72 h); above 10000 nM in assay [3] (setting [5]).
For the compound `C[C@@H](Nc1ccccc1C(=O)O)c1cc(F)cc2nc(C#N)c(N3CCC(F)(F)CC3)nc12` [Example 32, (R)-2-((1-(2-cyano-3-(4,4-difluoropiperidin-1-yl)-7-fluoroquinoxalin-5-yl)ethyl)amino)benzoic acid], the IC50 in assay [1] (setting [4]) was 10.2 nM; in assay [2] (T47D, 72 h), 265 nM; in assay [3] (setting [5]), above 10000 nM.
The like results for `C[C@@H](Nc1ccc(Cl)nc1C(=O)O)c1cc(C2CC2)cc2nc(C#N)c(N3CCC(F)(F)CC3)nc12` [Example 33, (R)-6-chloro-3-((1-(2-cyano-7-cyclopropyl-3-(4,4-difluoropiperidin-1-yl)quinoxalin-5-yl)ethyl)amino)picolinic acid] were, in that order, 4.3 nM, 91.4 nM and 7430 nM.
